From US20120003191A1, “VALPROIC ACID, DERIVATIVES, ANALOGUES, AND COMPOSITIONS INCLUDING SAME AND METHODS FOR THEIR THERAPEUTIC USE” (priority 2009, published 2012)

Assays:
mdx/utrn−/− mice [1] = test: Masson's trichrome staining of quadriceps cryosections; assay type: in vivo, mouse; conditions: 240 mg/kg i.p. twice daily for 5 weeks
Procedure: mdx/utrn−/− mice lack both dystrophin and utrophin, and were bred and genotyped as reported in Burkin, et al., Enhanced expression of the alpha 7 beta 1 integrin reduces muscular dystrophy and restores viability in dystrophic mice, J. Cell Biol. 152:1207-18 (2001). 240 mg/kg body weight of VPA was injected intraperitoneally twice daily into mdx/utrn^−/− mice (n=9) starting at 3 weeks of age, for a period of 5 weeks. Control mice were injected with saline (n=9). Body-weights were determined daily. Masson's trichrome staining kit (American MasterTech Scientific Inc., Lodi, Calif.) was used to stain 8 μm muscle cryosections, as per the manufacturer's instructions.

mdx/utrn−/− mice [2] = test: Contracture assay in mdx/utrn−/− mice; assay type: in vivo, mouse; conditions: 35th day of treatment
Procedure: mdx/utrn−/− mice lack both dystrophin and utrophin, and were bred and genotyped as reported in Burkin, et al., Enhanced expression of the alpha 7 beta 1 integrin reduces muscular dystrophy and restores viability in dystrophic mice, J. Cell Biol. 152:1207-18 (2001). 240 mg/kg body weight of VPA was injected intraperitoneally twice daily into mdx/utrn^−/− mice (n=9) starting at 3 weeks of age, for a period of 5 weeks. Control mice were injected with saline (n=9). Body-weights were determined daily. On the 35th day of treatment, mdx/utrn^−/− mice injected with saline (n=9) or VPA (n=9) were tested for contractures in their hind limbs as follows: mice were placed on a flat table and were lifted by their tails so that their fore-limbs touched the table-surface and their hindquarters were in air. The positions of the hind-limbs were photographed. Normally, mice in this position extend their hind-limbs. The presence of contractures in dystrophic mice prevents full extension.

dyw mouse model of MDC1A = test: VPA in the dyw mouse model of MDC1A (predicted); assay type: in vivo
Procedure: In particular, the effect of VPA on MDC1A is determined by using the dyw mouse model of MDC1A. VPA (60 mg/kg or 240 mg/kg body weight) is administered i.p. daily to male dyw mice (n=11 each, as determined by Power analysis with α=0.05, p=0.8 and r=0.5) for 6 weeks starting at 10 days of age. Daily body weights are noted and mice observed for signs of overt toxicity. Control mice of each genotype will be injected with the same volumes of sterile saline. At the end of the course of injections, mice are sacrificed and the gastrocnemius-soleus, quadriceps, heart and diaphragm harvested. Tissues are sectioned on a Leica CM 1850 cryostat to 10 μm. Hematoxylin-eosin staining is performed on the sections. The effect of VPA on the Akt pathway, fibrosis, apoptosis and/or fiber-diameter variation in skeletal muscle of dyw mice is determined by methods known to those of ordinary skill in the art including, but not limited to those described below.
As muscle fiber-diameter variation is a pathological feature in MDC1A muscle, it can be determined if treatment with VPA restores this parameter in dyw mice. Using image analysis software, muscle-fiber diameters are calculated in at least 500 fibers per mouse in both the VPA and control treated groups. […] Data is analyzed by ANOVA and a p-value of <0.05 is considered statistically significant.
To quantify fibrosis in muscles, western blotting is performed on muscle extracts using an antibody against collagen VI (Santa Cruz Biotechnology, Santa Cruz, Calif.). Protein extracts are made from muscles as reported (Gurpur et al., 2009) and the Bradford assay is done to determine protein concentrations. Western blotting is carried out using 1:1000 dilution of the anti-collagen VI antibody. The blots are re-probed with an antibody against tubulin to ensure equal protein loading. Band intensities are quantified using the LiCor Odyssey software (LiCor Biosciences, Lincoln, Neb.). Ratio of the collagen VI to tubulin band-intensities is calculated. […] Data is analyzed by ANOVA and a p-value of <0.05 is considered statistically significant.
Muscle fiber loss due to apoptosis is a significant problem in MDC1A patients. To determine if VPA treatment decreases apoptosis in dyw muscle, after the course of injections, mice are sacrificed and the gastrocnemius-soleus, quadriceps and diaphragm harvested. Tissues are sectioned on a Leica CM 1850 cryostat to 10 μm. The DeadEnd fluorometric TUNEL assay kit (Promega, Madison, Wis.) is used as per the manufacturer's instructions to label apoptotic nuclei in the cryosections. The total number of nuclei (DAPI labeled, fluorescing blue) and the apoptotic nuclei (fluorescing green) are counted in 15 random fields for each muscle, for each mouse. The proportion of apoptotic nuclei is quantified and compared between the VPA injected and control mice. […] Data is analyzed by ANOVA and a p-value of <0.05 is considered statistically significant.
VPA is administered to male dyw mice (n=11 each) daily for 6 weeks with 80 mg/kg or 240 mg/kg body weight of VPA starting at 10 days of age. Daily body weights are noted and mice are observed for signs of overt toxicity. Control mice are injected with the same volumes of sterile saline.
After the course of injections, mice are sacrificed and the gastrocnemius-soleus, quadriceps and diaphragm harvested. Protein extracts are made from the muscles as reported (Gurpur et al., 2009). […]

For `CCCC(CCC)C(=O)O` [VPA, valproic acid], the “collagen staining in quadriceps compared to controls” value (mdx/utrn−/− mice [1]) was “lower intensity of collagen staining”, the “proportion of mice with contractures” value (mdx/utrn−/− mice [2]; 240 mg/kg i.p. twice daily, n=9) was 11.1% and the “proportion with contractures, saline-injected group higher compared to VPA-injected group” value (mdx/utrn−/− mice [2]) was “approximately 4 fold”. The “Akt pathway in skeletal muscle of dyw mice” value (dyw mouse model of MDC1A) was “activates the Akt pathway”, the “apoptosis in skeletal muscle of dyw mice” value (dyw mouse model of MDC1A) was “inhibiting apoptosis” and the “fiber-diameter variation in skeletal muscle of dyw mice” value (dyw mouse model of MDC1A) was “decreasing fiber-diameter variation”. The “fibrosis in skeletal muscle of dyw mice” value (dyw mouse model of MDC1A) was “decreasing fibrosis” and the “pathology in dyw mice” value (dyw mouse model of MDC1A) was “ameliorate pathology”.
